Where “and” joins values, the source holds several entries; their conditions need not be identical. Equal values may be shown once. Read-outs that look alike come from different tables or passages of the source.
Experiments:
[1] = target: T1, mu opioid receptor (Rattus norvegicus, UniProt P33535); experiment: Rat Brain Mu Opioid Receptor Binding Assay (and Version 2a, [3H]DAMGO); settings: rat forebrain membranes, margin of error 10-20%, read-out: r Ki μ
T1 construct: from tissue; host or cells: forebrain of male Wistar rats
T1 sequence (P33535 whole entry): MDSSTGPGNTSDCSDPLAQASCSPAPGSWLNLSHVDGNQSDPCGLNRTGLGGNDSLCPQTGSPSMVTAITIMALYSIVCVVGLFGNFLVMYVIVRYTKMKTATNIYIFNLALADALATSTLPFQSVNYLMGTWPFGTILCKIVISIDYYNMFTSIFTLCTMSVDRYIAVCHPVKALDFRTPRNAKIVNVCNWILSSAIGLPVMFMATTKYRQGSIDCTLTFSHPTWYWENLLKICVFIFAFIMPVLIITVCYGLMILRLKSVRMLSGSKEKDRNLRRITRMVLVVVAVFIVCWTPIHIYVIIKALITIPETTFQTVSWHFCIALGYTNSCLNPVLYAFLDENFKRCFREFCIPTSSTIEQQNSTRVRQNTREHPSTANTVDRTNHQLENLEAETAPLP
Protocol: Male, Wistar rats (150-250 g, VAF, Charles River, Kingston, N.Y.) are killed by cervical dislocation, and their brains removed and placed immediately in ice cold Tris HCl buffer (50 mM, pH 7.4). The forebrains are separated from the remainder of the brain by a coronal transection, beginning dorsally at the colliculi and passing ventrally through the midbrain-pontine junction. After dissection, the forebrains are homogenized in Tris buffer in a Teflon® glass homogenizer. The homogenate is diluted to a concentration of 1 g of forebrain tissue per 80 mL Tris and centrifuged at 39,000×g for 10 min. The pellet is resuspended in the same volume of Tris buffer containing 5 mM MgCl2 with several brief pulses from a Polytron homogenizer. This particulate preparation is used for the mu-opioid binding assays. […] The filters are rinsed three times with 2 mL of 10 mM HEPES (pH7.4), and dried in a microwave oven 2 min twice. To each sample area 2×50 μL of Betaplate Scint scintillation fluid (LKB) is added and analyzed on a LKB (Wallac) 1205 BetaPlate liquid scintillation counter.
(§1) The data are used to calculate either the % inhibition compared to control binding (when only a single concentration of test compound is evaluated) or a Ki value (when a range of concentrations is tested). % inhibition is calculated as: [(total dpm-test compound dpm)/(total dpm-nonspecific dpm)]*100. Kd and Ki values were calculated using GraphPad PRISM data analysis program.
Male, Wistar rats (150-250 g, VAF, Charles River, Kingston, N.Y.) were killed by cervical dislocation, and their brains removed and placed immediately in ice-cold Tris HCl buffer (50 mM, pH 7.4). The forebrains were separated from the remainder of the brain by a coronal transection, beginning dorsally at the colliculi and passing ventrally through the midbrain-pontine junction. After dissection, the forebrains were homogenized in Tris buffer in a Teflon®-glass homogenizer. The homogenate was diluted to a concentration of 1 g of forebrain tissue per 80 mL Tris and centrifuged at 39,000×g for 10 min. The pellet was resuspended in the same volume of Tris buffer containing 5 mM MgCl2 with several brief pulses from a Polytron homogenizer. This particulate preparation was used for the mu opioid binding assay. Following incubation with 0.8 nM of the mu selective ligand [^3H]DAMGO at 25° C. for 2.5 h in a 96-well plate with total 1 mL, the plate contents were filtered through Wallac filtermat B sheets on a Tomtec 96-well harvester. The filters were rinsed three times with 2 mL of 10 mM HEPES (pH 7.4), and dried in a microwave oven. To each sample area, Betaplate Scint scintillation fluid (LKB) was added and the resulting radioactivity quantified on a LKB (Wallac) 1205 BetaPlate liquid scintillation counter. Kd and Ki values were calculated using the GraphPad PRISM data analysis program.

[2] = target: T2, human mu opioid receptor (Homo sapiens, UniProt P35372); experiment: Human Mu Opioid Receptor Binding Assay (CHO membranes, 3H-Damgo); settings: read-out: hKi μ
T2 construct: purchased Perkin Elmer RBHOMM400UA; host or cells: Chinese Hamster Ovary cells (recombinant expression)
T2 sequence (P35372 whole entry): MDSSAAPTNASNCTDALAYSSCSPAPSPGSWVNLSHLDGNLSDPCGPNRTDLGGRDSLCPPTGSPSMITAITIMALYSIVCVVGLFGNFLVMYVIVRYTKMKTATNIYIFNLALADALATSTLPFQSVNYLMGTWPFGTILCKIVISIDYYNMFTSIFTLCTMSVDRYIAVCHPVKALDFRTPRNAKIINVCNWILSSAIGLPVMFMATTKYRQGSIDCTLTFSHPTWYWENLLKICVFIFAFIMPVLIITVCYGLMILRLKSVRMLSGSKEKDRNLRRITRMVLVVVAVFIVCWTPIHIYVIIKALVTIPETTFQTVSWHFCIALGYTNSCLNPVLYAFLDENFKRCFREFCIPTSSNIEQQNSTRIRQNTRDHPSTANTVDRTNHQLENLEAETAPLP
In short: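 Membranes from CHO cells expressing human mu opioid receptor, 300 μg/mL, in 50 mM Tris pH 7.5, 5 mM MgCl2. Incubated with compound and ³H-Damgo (3.6 nM before mixing) for 2 h at room temperature, filtered, counted by scintillation. Nonspecific binding with 1 μM unlabelled Damgo.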

[3] = target: T3, mu opioid receptor (CHO-hMOR cell membranes) (Homo sapiens, UniProt P35372); experiment: Mu Opioid Receptor Functional Assay: [35S]GTPγS Binding in CHO-hMOR Cell Membranes, Versions 1 and 2; type: biochemical; settings: for MOR GTP binding assay_v1 (% I): version 1, % inhibition of agonist-stimulated GTPγS binding; for MOR GTP assay_v1 % of Basal: version 1, basal binding = 100%
T3 construct: purchased Receptor Biology, Inc. (Baltimore, Md.); host or cells: CHO cells (recombinant expression)
T3 sequence (P35372 whole entry): as above
Protocol: CHO-hMOR cell membranes were purchased from Receptor Biology, Inc. (Baltimore, Md.). About 10 mg/ml of membrane protein was suspended in 10 mM TRIS-HCl pH 7.2, 2 mM EDTA, 10% sucrose, and the suspension kept on ice. One ml of membranes was added to 15 ml cold binding assay buffer containing 50 mM HEPES, pH 7.6, 5 mM MgCl2, 100 mM NaCl, 1 mM DTT and 1 mM EDTA. The membrane suspension was homogenized with a Polytron and centrifuged at 3,000 rpm for 10 min. The supernatant was then centrifuged at 18,000 rpm for 20 min. The pellet was resuspended in 10 ml assay buffer with a Polytron.
The membranes were preincubated with wheat germ agglutinin coated SPA beads (Amersham) at 25° C. for 45 min in the assay buffer. The SPA bead (5 mg/ml) coupled membranes (10 μg/ml) were then incubated with 0.5 nM [^35S]GTPγS in the assay buffer. […] A range of concentrations of receptor agonists was used to stimulate [^35S]GTPγS binding. Both basal and non-specific binding was tested in the absence of agonist; non-specific binding determination included 10 μM unlabeled GTPγS.
Compounds were tested for function as antagonists by evaluating their potential to inhibit agonist-stimulated GTPγS binding. Radioactivity was quantified on a Packard TopCount. The following parameters were calculated:
[formula] % Inhibition=(% stimulation by 1 μM SNC80−% stimulation by 1 μM SNC80 in presence of test compound)×100/(% Stimulation by 1 μM SNC80−100)
EC50 values were calculated using GraphPad Prism.

[4] = target: T4, human delta subtype 2 opioid receptor (Homo sapiens, UniProt P41143); experiment: Human Delta Opioid Receptor Binding Assay (CHO membranes, 3H-Naltrindole); settings: read-out: hKi δ
T4 construct: purchased Perkin Elmer RBHODM400UA; host or cells: Chinese Hamster Ovary cells (recombinant expression)
T4 sequence (P41143 whole entry): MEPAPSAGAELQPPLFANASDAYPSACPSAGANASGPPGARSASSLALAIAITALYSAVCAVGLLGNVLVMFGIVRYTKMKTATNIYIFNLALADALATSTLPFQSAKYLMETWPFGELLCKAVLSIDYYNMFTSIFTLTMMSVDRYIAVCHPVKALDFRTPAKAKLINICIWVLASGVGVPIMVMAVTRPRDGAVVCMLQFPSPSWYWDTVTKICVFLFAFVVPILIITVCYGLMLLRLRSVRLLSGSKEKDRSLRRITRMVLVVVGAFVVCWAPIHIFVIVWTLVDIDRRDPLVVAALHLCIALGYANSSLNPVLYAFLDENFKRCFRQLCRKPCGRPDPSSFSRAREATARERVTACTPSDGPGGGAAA
In short: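 Filtration binding on CHO-cell membranes expressing the human receptor, in 50 mM Tris pH 7.5 with 5 mM MgCl2, 30 min at room temperature; 3H-naltrindole diluted to 6 nM before mixing 1:1 with compound. Nonspecific binding defined with 1 μM unlabelled naltrindole; inhibition relative to no-inhibitor wells.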

[5] = target: T5, delta opioid receptor (Rattus norvegicus, UniProt P33533); experiment: Rat Brain Delta Opioid Receptor Binding Assay ([3H]DPDPE); settings: rat forebrain membranes, margin of error 10-20%, read-out: r Ki δ
T5 construct: from tissue; host or cells: forebrain of male Wistar rats
T5 sequence (P33533 whole entry): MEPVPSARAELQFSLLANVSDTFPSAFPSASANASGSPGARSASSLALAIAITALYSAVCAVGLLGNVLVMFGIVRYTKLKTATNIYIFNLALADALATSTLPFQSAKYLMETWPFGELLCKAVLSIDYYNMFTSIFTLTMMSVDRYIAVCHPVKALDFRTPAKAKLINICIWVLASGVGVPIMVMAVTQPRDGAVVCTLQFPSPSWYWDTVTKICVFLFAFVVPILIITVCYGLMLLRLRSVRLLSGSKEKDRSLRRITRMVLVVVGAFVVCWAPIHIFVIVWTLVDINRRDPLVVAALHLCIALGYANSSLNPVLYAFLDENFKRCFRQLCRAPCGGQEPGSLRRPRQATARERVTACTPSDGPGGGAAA
Protocol: Male, Wistar rats (150-250 g, VAF, Charles River, Kingston, N.Y.) are killed by cervical dislocation, and their brains removed and placed immediately in ice cold Tris HCl buffer (50 mM, pH 7.4). The forebrains are separated from the remainder of the brain by a coronal transection, beginning dorsally at the colliculi and passing ventrally through the midbrain-pontine junction. After dissection, the forebrains are homogenized in Tris buffer in a Teflon® glass homogenizer. The homogenate is diluted to a concentration of 1 g of forebrain tissue per 80 mL Tris and centrifuged at 39,000×g for 10 min. The pellet is resuspended in the same volume of Tris buffer containing 5 mM MgCl2 with several brief pulses from a Polytron homogenizer. This particulate preparation is used for the delta opioid binding assays. Following incubation with the delta selective peptide ligand ˜4 nM [^3H]DPDPE at 25° C. for 2.5 h in a 96-well plate with total volume of 1 mL, the plate contents are filtered through Wallac filtermat B sheets on a Tomtec 96-well harvester. The filters are rinsed three times with 2 mL of 10 mM HEPES (pH 7.4), and dried in a microwave oven 2 min twice. To each sample area 2×50 μL of Betaplate Scint scintillation fluid (LKB) is added and analyzed on a LKB (Wallac) 1205 BetaPlate liquid scintillation counter.
as §1, with “dpm−test” for “dpm-test”, “dpm−nonspecific” for “dpm-nonspecific”

[6] = tested on: novel environment-stressed mice; experiment: In Vivo Assay-Stress-Induced Fecal Output (Fecal Output for 1 hr); design: species or system mouse; settings: for response vs control in vivo at 30 mg/kg: Mus musculus, po, 1 h; for response vs control in vivo at 30 mg/kg / Fecal Output (# pellets) cpd: 30 mg/kg oral, 1 hr; for Fecal Output (# pellets) cpd: novel environment-stressed mice
Description: This assay evaluates the fecal output in novel environment-stressed mice to that of acclimated controls.
Methods: Adult, male, Crl:CD-1(ICR) mice, weighing ˜30-35 g were used in these studies, with a minimum of 10 mice per dose group. One group of mice was assigned as acclimated, or “non-stressed” controls. These control mice were transported from colony housing, where they were housed 3/cage in polycarbonate cages with access to food and water ad lib. to the procedure room. The mice were removed from their home cages and individually housed in 20 cm wide×20 cm deep×15 cm tall cages, equipped with a wire mesh bottom where they remained for a 16-18 hr period of acclimation to their novel environment. Mice were allowed access to food and water ad lib. during acclimation. The other groups of mice were assigned as non-acclimated, or “stressed” treatment groups. Each mouse in each group was weighed and vehicle, or test compound, was intragastrically administered by oral intubation in 0.5% methylcellulose. Mice were allowed access to water only ad lib. during the test period. After compound administrations, acclimated (control) as well as non-acclimated (stressed) mice were individually housed in a 20 cm wide×20 cm deep×15 cm tall cage, with a wire mesh bottom. An absorbant cardboard is placed beneath the cages. The number of fecal pellets excreted by each mouse was determined at hourly intervals following placement of the mice in the individual cages. Raw Data=# of fecal pellets/mouse/hr. […]

[7] = relative to novel environment stress (NES) vehicle group, read-out: Fecal Output cpd % NES
[8] = relative to acclimated control, read-out: Fecal Output cpd % control

Cc1cc(O)cc(C)c1C[C@H](N)C(=O)N[C@@H](CC(C)C)c1nc(-c2ccccc2)c[nH]1 [Cpd 176]
Ki [1]: 156 nM

Cc1cc(O)cc(C)c1C[C@H](N)C(=O)N(Cc1nc(-c2ccccc2)c[nH]1)C(C)CN(C)C (some centres unmarked) [Cpd 167]
Ki [2]: 4.2 nM
MOR GTP binding assay_v1 (% I) [3]: 17.00%
MOR GTP assay_v1 % of Basal [3]: 780.00%
Ki [1]: 3.15 nM

Cc1cc(O)cc(C)c1C[C@H](N)C(=O)N(C(C)C)[C@@H](Cc1cccc(C#N)c1)c1nc(-c2ccccc2)c[nH]1 [Cpd 122]
Ki [2]: 12.8 nM
MOR GTP binding assay_v1 (% I) [3]: 41.93%
MOR GTP assay_v1 % of Basal [3]: 278.08%
Ki [4]: 107 nM

Cc1cc(C(=O)N2CCOCC2)cc(C)c1C[C@H](N)C(=O)N(C)[C@@H](C)c1nc(-c2ccccc2)c[nH]1 [Cpd 179]
Ki [1]: 7120 nM

COc1ccc(CN(Cc2nc(-c3ccccc3)c[nH]2)C(=O)[C@@H](N)Cc2c(C)cc(C(N)=O)cc2C)cc1C(=O)O [Cpd 6]
Ki [2]: 2 nM
Ki [5]: 1.7 nM

Cc1cc(C(N)=O)cc(C)c1C[C@H](N)C(=O)N(Cc1cccc(C(=O)O)c1)[C@@H](C)c1nc(-c2ccc(Cl)cc2)c(C)[nH]1 [Cpd 12]
Ki [2]: 4.1 nM
Ki [5]: 0.08 nM

CC(C)C[C@@H](c1nc(-c2ccccc2)c[nH]1)N(C)C(=O)[C@@H](N)Cc1cccc(C#N)c1 [Cpd 169]
Ki [1]: 853 nM

CC(C)[C@@H](c1nc(-c2ccccc2)c[nH]1)N(C)C(=O)[C@@H](N)Cc1ccc(O)cc1 [Cpd 171]
Ki [1]: 141 nM

Cc1cc(O)cc(C)c1C[C@H](N)C(=O)N(Cc1ccc(C(=O)O)cc1)[C@@H](C)c1nc(-c2ccccc2)c[nH]1 [Cpd 80]
Ki [2]: 1.09 nM
response vs control in vivo at 30 mg/kg [6, 7]: 75.3%
Ki [4]: 0.95 nM

Cc1cc(C(N)=O)cc(C)c1C[C@H](N)C(=O)N(Cc1nc(-c2ccccc2)c[nH]1)[C@@H](C)c1ccccc1 [Cpd 95]
Ki [2]: 7.8 nM
Fecal Output (# pellets) cpd [6]: 8.5 pellets
response vs control in vivo at 30 mg/kg [6, 8]: 315%
response vs control in vivo at 30 mg/kg [6, 7]: 93.4%
Ki [4]: 278 nM

Cc1cc(O)cc(C)c1C[C@H](N)C(=O)N(C(C)C)[C@@H](CO)c1nc(-c2ccccc2)c[nH]1 [Cpd 118]
Ki [2]: 1.04 nM
Fecal Output (# pellets) cpd [6]: 7.2 pellets
response vs control in vivo at 30 mg/kg [6, 8]: 134%
response vs control in vivo at 30 mg/kg [6, 7]: 60.2%
Ki [4]: 316 nM and 212 nM

Cc1cc(O)cc(C)c1C[C@H](N)C(=O)N[C@@H](Cc1cccc(C(N)=O)c1)c1nc(-c2ccccc2)c[nH]1 [Cpd 172]
Ki [1]: 150 nM

CNC(=O)c1cc(C)c(C[C@H](N)C(=O)N(C)[C@H](C)c2nc(-c3ccccc3)c[nH]2)c(C)c1 [Cpd 184]
MOR GTP binding assay_v1 (% I) [3]: 13.00%
MOR GTP assay_v1 % of Basal [3]: 862.00%
Ki [1]: 19.5 nM

Cc1cc(O)cc(C)c1C[C@H](N)C(=O)N(Cc1c(Cl)cccc1Cl)[C@@H](C)c1nc(-c2ccccc2)c[nH]1 [Cpd 97]
Ki [2]: 19.2 nM
Fecal Output (# pellets) cpd [6]: 4.8 pellets
response vs control in vivo at 30 mg/kg [6, 8]: 65.8%
response vs control in vivo at 30 mg/kg [6, 7]: 37.2%
# of pellets, Compound (m) 3.0 ([6]; dose 3.0, oral, NES mice, fecal output 1 hr): 14 and 9.1
Fecal pellet output, Compound (% control) 3.0 ([6]; dose 3.0, oral, NES mice, vs acclimated control): 226.2 % control and 189.6 % control
Fecal pellet output, Compound (% NES) 3.0 ([6]; dose 3.0, oral, vs vehicle NES group): 119 % NES and 90.1 % NES
# of pellets, Compound (m) 10.0 ([6]; dose 10.0, oral, NES mice, fecal output 1 hr): 7.5 and 10.4
Fecal pellet output, Compound (% control) 10.0 ([6]; dose 10.0, oral, NES mice, vs acclimated control): 123.0 % control and 216.7 % control
Fecal pellet output, Compound (% NES) 10.0 ([6]; dose 10.0, oral, vs vehicle NES group): 64.66 % NES and 103 % NES
# of pellets, Compound (m) 30.0 ([6]; dose 30.0, oral, NES mice, fecal output 1 hr): 3.5 and 2.3
Fecal pellet output, Compound (% control) 30.0 ([6]; dose 30.0, oral, NES mice, vs acclimated control): 57 % control and 48 % control
Fecal pellet output, Compound (% NES) 30 ([6]; dose 30, oral, vs vehicle NES group): 30.17 % NES and 22.77 % NES
Ki [4]: 6.3 nM

— patent publication US10213415B2, “Compounds as opioid receptor modulators” (JANSSEN PHARMACEUTICA NV, priority 2004, dated 2019)
